Patent US10179782B2, “Substituted sulfonamide compounds” (Genentech, Inc., priority 2016, dated 2019)

What follows are compounds tested against T1, human TRPA1 (Homo sapiens, UniProt O75762) (assay: TRPA1 FLIPR Tetra calcium influx assay in CHO cells (block of cinnamaldehyde-induced calcium influx)). Details: Table 2; CHO cells expressing TRPA1; agonist cinnamaldehyde 75 uM; 20 min compound incubation; Hill coefficient fixed to 1.5; read-out: hTRPA1 CHO Ca2+ AUC EVO (IC50).
T1 construct: expressed in transfected cells; host or cells: CHO cells
Format: cell-based
Procedure, shortened: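 CHO cells expressing TRPA1 were loaded with calcium dye in HBSS/20 mM HEPES, pH 7.4, 0.02% BSA, then given compound for 20 min at room temperature before ~EC80 cinnamaldehyde (75 µM human, 45 µM rat). Block of calcium influx was read on FLIPR Tetra; IC50 fitted with Hill coefficient fixed at 1.5.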

T1 sequence (O75762 whole entry): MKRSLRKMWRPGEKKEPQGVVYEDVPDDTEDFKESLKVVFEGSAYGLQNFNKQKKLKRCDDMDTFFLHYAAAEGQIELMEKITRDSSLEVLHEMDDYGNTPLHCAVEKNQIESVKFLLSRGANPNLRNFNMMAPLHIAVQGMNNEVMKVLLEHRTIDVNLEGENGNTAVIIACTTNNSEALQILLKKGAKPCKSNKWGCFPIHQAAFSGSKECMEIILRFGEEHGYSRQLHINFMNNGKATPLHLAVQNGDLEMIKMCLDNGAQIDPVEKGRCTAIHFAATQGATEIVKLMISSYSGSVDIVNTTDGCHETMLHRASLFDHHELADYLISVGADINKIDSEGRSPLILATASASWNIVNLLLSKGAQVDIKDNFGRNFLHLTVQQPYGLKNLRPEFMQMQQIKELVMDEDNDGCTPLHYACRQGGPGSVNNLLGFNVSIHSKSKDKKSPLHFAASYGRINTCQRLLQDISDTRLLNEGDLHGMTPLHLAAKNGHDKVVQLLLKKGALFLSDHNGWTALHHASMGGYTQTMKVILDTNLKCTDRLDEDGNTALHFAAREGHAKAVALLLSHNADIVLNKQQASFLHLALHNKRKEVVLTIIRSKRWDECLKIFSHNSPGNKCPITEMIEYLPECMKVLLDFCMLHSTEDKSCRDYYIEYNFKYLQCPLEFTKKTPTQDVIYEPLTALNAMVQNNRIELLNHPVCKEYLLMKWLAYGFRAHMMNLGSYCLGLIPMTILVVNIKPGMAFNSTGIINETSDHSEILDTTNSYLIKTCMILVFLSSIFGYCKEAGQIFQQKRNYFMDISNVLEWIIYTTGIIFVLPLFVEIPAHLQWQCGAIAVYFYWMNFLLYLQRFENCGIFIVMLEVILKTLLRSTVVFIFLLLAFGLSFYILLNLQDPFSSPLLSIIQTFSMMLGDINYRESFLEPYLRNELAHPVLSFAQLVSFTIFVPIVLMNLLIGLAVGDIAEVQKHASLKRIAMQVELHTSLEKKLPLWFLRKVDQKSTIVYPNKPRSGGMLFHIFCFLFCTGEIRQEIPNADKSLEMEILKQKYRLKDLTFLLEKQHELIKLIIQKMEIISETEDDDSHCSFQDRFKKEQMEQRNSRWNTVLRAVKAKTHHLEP

Question: How did the IC50 turn out when `C[C@H]1[C@H](F)C[C@@H](C(=O)NCc2cc(-c3cnc(C(F)(F)F)nc3)ncn2)N1S(=O)(=O)c1ccc(F)cc1` [Example 8, (2S,4R,5S)-4-fluoro-1-(4-fluorophenyl)sulfonyl-5-methyl-N-[[6-[2-(trifluoromethyl)pyrimidin-5-yl]pyrimidin-4-yl]methyl]pyrrolidine-2-carboxamide] was run?
Answer: 17.3 nM

Question: `O=C(NCc1cc(-c2cnc(C(F)(F)F)nc2)ccc1F)[C@@H]1C[C@@H]2C[C@@H]2N1S(=O)(=O)c1ccc(F)cc1` [Example 16, (1S,3S,5S)-2-(4-fluorophenyl)sulfonyl-N-[[2-fluoro-5-[2-(trifluoromethyl)pyrimidin-5-yl]phenyl]methyl]-2-azabicyclo[3.1.0]hexane-3-carboxamide] was tested. Which IC50 did it give?
Answer: 2.12 nM

Question: For `O=C(NCc1ccnc(-c2cnc(C(F)(F)F)nc2)c1)[C@@H]1C[C@@H]2C[C@@H]2N1S(=O)(=O)c1ccc(F)cc1` [Example 13, (1S,3S,5S)-2-(4-fluorophenyl)sulfonyl-N-[[2-[2-(trifluoromethyl)pyrimidin-5-yl]-4-pyridyl]methyl]-2-azabicyclo[3.1.0]hexane-3-carboxamide], which IC50 is on record?
Answer: 23 nM

Question: Which IC50 does the source give for `COc1nn(-c2cnc(C(F)(F)F)nc2)cc1CNC(=O)[C@@H]1C[C@@H](F)[C@H](C)N1S(=O)(=O)c1ccc(F)cc1` [Example 6, (2S,4R,5S)-4-fluoro-1-(4-fluorophenyl)sulfonyl-N-[[3-methoxy-1-[2-(trifluoromethyl)pyrimidin-5-yl]pyrazol-4-yl]methyl]-5-methyl-pyrrolidine-2-carboxamide] here?
Answer: 9.62 nM

Question: With `C[C@H]1[C@H](F)C[C@@H](C(=O)NCc2cc(-c3cnc(C(F)(F)F)cn3)ncc2C(F)(F)F)N1S(=O)(=O)c1ccc(F)cc1` [Example 112, (2S,4R,5 S)-4-fluoro-1-(4-fluorophenylsulfonyl)-5-methyl-N-((5-(trifluoromethyl)-2-(5-(trifluoromethyl)pyrazin-2-yl)pyridin-4-yl)methyl)pyrrolidine-2-carboxamide] as the compound, how does the IC50 read?
Answer: 1.94 nM

Question: `C[C@H]1[C@H](F)C[C@@H](C(=O)NCc2cc(-c3cnc(C(F)(F)F)nc3)nc(C3CC3)c2)N1S(=O)(=O)c1ccc(F)cc1` [Example 121, (2S,4R,5S) N-[[2-cyclopropyl-6-[2-(trifluoromethyl)pyrimidin-5-yl]-4-pyridyl]methyl]-4-fluoro-1-(4-fluorophenyl)sulfonyl-5-methyl-pyrrolidine-2-carboxamide] was tested. Which IC50 did it give?
Answer: 1.45 nM

Question: How did the IC50 turn out when `C[C@H]1[C@H](F)C[C@@H](C(=O)NCc2cc(-c3ccc(C(F)(F)F)cc3)ncc2OC(F)(F)F)N1S(=O)(=O)c1ccc(F)cc1` [Example 139, (2S,4R,5S)-4-fluoro-1-(4-fluorophenyl)sulfonyl-5-methyl-N-[[5-(trifluoromethoxy)-2-[4-(trifluoromethyl)phenyl]-4-pyridyl]methyl]pyrrolidine-2-carboxamide] was run?
Answer: 2.77 nM

Question: For `C[C@H]1[C@H](F)C[C@@H](C(=O)NCc2cc(-c3cnc(C(F)(F)F)nc3)ncc2F)N1S(=O)(=O)c1cccc(Cl)c1` (stereo in doubt) [Example 91, (2S,4R,5S)-1-(3-chlorophenyl)sulfonyl-4-fluoro-N-[[5-fluoro-2-[2-(trifluoromethyl)pyrimidin-5-yl]-4-pyridyl]methyl]-5-methyl-pyrrolidine-2-carboxamide], which IC50 is on record?
Answer: 20 nM

Question: With `O=C(NCc1ccc(F)c(-c2cnc(C(F)(F)F)nc2)c1)[C@H]1[C@@H]2C[C@@H]2CN1S(=O)(=O)c1ccc(F)cc1` (stereo in doubt) [Example 70, (1S,4R,5R)-3-(4-fluorophenyl)sulfonyl-N-[[4-fluoro-3-[2-(trifluoromethyl)pyrimidin-5-yl]phenyl]methyl]-3-azabicyclo[3.1.0]hexane-4-carboxamide] as the compound, how does the IC50 read?
Answer: 11.3 nM

Question: With `C[C@H]1[C@H](F)C[C@@H](C(=O)NCc2cc(-c3cnc(C(F)(F)F)nc3)ncc2OCC(F)(F)F)N1S(=O)(=O)c1ccc(F)cc1` [Example 122, (2S,4R,5S)-4-fluoro-1-(4-fluorophenylsulfonyl)-5-methyl-N-((5-(2,2,2-trifluoroethoxy)-2-(2-(trifluoromethyl)pyrimidin-5-yl)pyridin-4-yl)methyl)pyrrolidine-2-carboxamide] as the compound, how does the IC50 read?
Answer: 5.51 nM

Question: Which IC50 does the source give for `C[C@H]1[C@H](F)C[C@@H](C(=O)NCc2cc(-c3cnc(C(F)(F)F)nc3)ccn2)N1S(=O)(=O)c1ccc(F)cc1` [Example 29, (2S,4R,5S)-4-fluoro-1-(4-fluorophenylsulfonyl)-5-methyl-N-((4-(2-(trifluoromethyl)pyrimidin-5-yl)pyridin-2-yl)methyl)pyrrolidine-2-carboxamide] here?
Answer: 113 nM

Question: `C[C@@]1(F)C[C@@H](C(=O)NCc2cc(Cl)nc(-c3cnc(C(F)(F)F)nc3)c2)N(S(=O)(=O)c2ccc(F)cc2)C1` [Example 75, (2S,4R)-N-[[2-chloro-6-[2-(trifluoromethyl)pyrimidin-5-yl]-4-pyridyl]methyl]-4-fluoro-1-(4-fluorophenyl)sulfonyl-4-methyl-pyrrolidine-2-carboxamide] was tested. Which IC50 did it give?
Answer: 66.6 nM

Question: Which IC50 does the source give for `C[C@H]1[C@H](F)C[C@@H](C(=O)NCc2cc(-c3ccc(OC(F)F)nc3)ncc2C(F)(F)F)N1S(=O)(=O)c1ccc(F)cc1` [Example 114, (2S,4R,5S)—N-([2-[6-(difluoromethoxy)pyridin-3-yl]-5-(trifluoromethyl)pyridin-4-yl]methyl)-4-fluoro-1-[(4-fluorobenzene)sulfonyl]-5-methylpyrrolidine-2-carboxamide] here?
Answer: 3.57 nM

Question: With `C[C@H]1[C@H](F)C[C@@H](C(=O)NCc2cc(OCCOC(F)(F)F)c(F)cn2)N1S(=O)(=O)c1ccc(F)cc1` [Example 82, (2S,4R,5S)-4-fluoro-1-(4-fluorophenyl)sulfonyl-N-[[5-fluoro-4-[2-(trifluoromethoxy)ethoxy]-2-pyridyl]methyl]-5-methyl-pyrrolidine-2-carboxamide] as the compound, how does the IC50 read?
Answer: 166 nM

Question: With `C[C@@]1(F)C[C@@H](C(=O)NCc2cc(-c3cnc(C(F)(F)F)nc3)ncc2C(F)(F)F)N(S(=O)(=O)c2cc3cc(F)ccc3o2)C1` [Example 156, (2S,4R)-4-fluoro-1-(5-fluorobenzofuran-2-yl)sulfonyl-4-methyl-N-[[5-(trifluoromethyl)-2-[2-(trifluoromethyl)pyrimidin-5-yl]-4-pyridyl]methyl]pyrrolidine-2-carboxamide] as the compound, how does the IC50 read?
Answer: 1.93 nM

Question: How did the IC50 turn out when `C[C@H]1[C@H](F)C[C@@H](C(=O)NCc2cc(N3CC(OC(F)(F)F)C3)ncn2)N1S(=O)(=O)c1ccc(F)cc1` [Example 25, (2S,4R,5S)-4-fluoro-1-(4-fluorophenylsulfonyl)-5-methyl-N-((6-(3-(trifluoromethoxy)azetidin-1-yl)pyrimidin-4-yl)methyl)pyrrolidine-2-carboxamide] was run?
Answer: 2400 nM

Question: `C[C@H]1[C@H](F)C[C@@H](C(=O)NCc2cc(-c3cnc(C(F)(F)F)nc3)c(C#N)cn2)N1S(=O)(=O)c1ccc(F)cc1` [Example 86, (2S,4R,5S)-N-[[5-cyano-4-[2-(trifluoromethyl)pyrimidin-5-yl]-2-pyridyl]methyl]-4-fluoro-1-(4-fluorophenyl)sulfonyl-5-methyl-pyrrolidine-2-carboxamide] was tested. Which IC50 did it give?
Answer: 124 nM

Question: Which IC50 does the source give for `C[C@H]1[C@H](C#N)C[C@@H](C(=O)NCc2cc(-c3cnc(C(F)(F)F)nc3)ncc2F)N1S(=O)(=O)c1ccc(F)cc1` [Example 84, (2S,4R,5S)-4-cyano-1-(4-fluorophenyl)sulfonyl-N-[[5-fluoro-2-[2-(trifluoromethyl)pyrimidin-5-yl]-4-pyridyl]methyl]-5-methyl-pyrrolidine-2-carboxamide] here?
Answer: 65.3 nM
